# In publication PMC3062375 (Biochemistry, 2011):
# Non-standard residues stand in square brackets, D forms with d. Residues, ends and D or L forms follow the SMILES beside them. No end group written: not given here. pS = N[C@@H](COP(=O)(O)O)C(=O)O
# Target: T1, S100A11 protein (Sus scrofa, UniProt P31950)
# T1 sequence (P31950 1-99): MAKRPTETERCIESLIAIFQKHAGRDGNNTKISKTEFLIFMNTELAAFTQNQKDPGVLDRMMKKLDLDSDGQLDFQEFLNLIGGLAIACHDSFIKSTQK
# Assay: Tryptophan fluorescence titration of peptide binding to S100A11
# Design: species or system porcine
row,Compound,Kd [µM]
1,"CC[C@H](C)[C@H](NC(=O)[C@H](Cc1ccccc1)NC(=O)[C@H](Cc1c[nH]c2ccccc12)NC(=O)[C@H](C)NC(=O)[C@H](CCC(N)=O)NC(=O)[C@H](CCCCN)NC(=O)[C@H](CC(C)C)NC(=O)[C@H](Cc1ccccc1)NC(=O)[C@H](CCC(=O)O)NC(=O)[C@H](COP(=O)(O)O)NC(=O)[C@@H](NC(=O)[C@H](CCSC)NC(=O)[C@H](C)NC(C)=O)C(C)C)C(=O)N[C@@H](CCC(=O)O)C(=O)N[C@@H](CC(N)=O)C(=O)N[C@@H](CCC(=O)O)C(=O)N[C@@H](CCC(=O)O)C(=O)N[C@@H](CCC(N)=O)C(=O)O [Ac1−18P, Ac-AMV[pSer]EFLKQAWFIENEEQ] (Ac-AMV[pS]EFLKQAWFIENEEQ-OH)",56.8 ± 1
2,"Ac-AMVSEFLKQAWFIENEEQ [Ac1−18, Ac-AMVSEFLKQAWFIENEEQ]",2.1 ± 0.2
